pIC50: −log10 of the molar value.
Legend:
DuP 996 binding protein = experiment: Radioreceptor screening assay (displacement of tritiated DuP 996); set-up: species or system rat; conditions: inhibition of binding of 10 nM tritiated DuP 996, pH 7.4, 25° C., 60 minutes
Description: Male Sprague-Dawley rats (Charles River Breeding Laboratories) at 200-250 g were euthanatized by decapitation. Rat brain regions were dissected according to Heffner et al., Pharmacol. Biochem. Behav., 13, 453 (1980). Brain membranes were prepared by the method of Tam, Proc. Natl. Acad. Sci. USA, 80, 6703 (1983). The brain tissues were homogenized (20 sec) in 10 vol (wt/vol) of ice-cold 0.32M sucrose with a Brinkman Polytron (setting 8). The homogenate was centrifuged at 920×g for 10 min at 4° C. The supernatant was centrifuged at 47,000×g for 20 min. The resulting membrane pellet was resuspended in 10 vol (original wt/vol) of 50 mM Tris-HCl (pH 7.4) and incubated at 37° C. for 30 min to degrade and dissociate bound endogenous ligands. The membranes were then centrifuged at 47,000×g for 20 min and resuspended in 50 mM Tris-HCl.
Compounds to be screened were incubated with brain membranes. (1-2 mg protein) in 50 mM Tris-HCl buffer, pH 7.4, for 10 minutes in 25° C. Then 10 nM tritiated DuP 996 or its active structural analogs were added and incubated at 25° C. for 60 minutes. The samples were filtered on Whatman GF/B glass filters which had been soaked in 0.2% polyethylenimine and washed 3 times each with 5 ml of ice-cold Tris buffer. Nonspecific binding was determined by performing binding in the presence of 10 μM DuP 996. The control represents specific binding in the absence of compounds to be screened. Screened compounds which inhibited the specific binding of tritiated DuP 996 or analogs to its binding protein should be active in binding to the same protein. This is illustrated further in Example 4, Part B.

ACh release = experiment: Neurotransmitter release assay: stimulated ACh release from brain slices; set-up: species or system rat; conditions: concentration to enhance stimulated release of ACh by 100% (2-fold) over control, from dose response curves
Description: Male Wistar rats weighing 175-200 g were euthanatized and the brains were dissected out immediately. Slices (0.3 mm thick) from the parietal cortex were prepared manually by using a recessed Lucite® guide. Slices (1.5 mm thick) from the hippocampus and the caudate nucleus were prepared by using a slotted brain holder. All slices were subsequently cut into 0.25×0.25 mm squares with a McIlwain tissue chopper.
Labeling of transmitter stores in slices was prepared by the following methods. For ACh release, slices (approximately 100 mg wet weight) were incubated in 10 ml Krebs-Ringer (KR) medium containing (mM): NaCl(116), KCl(3), CaCl2 (1.3), MgCl2 (1.2), KH2 PO4 (1.2), Na2 SO4 (1.2), NaHCO3 (25) and glucose(11), to which 10 μCi ^3 H-choline (specific activity approx. 80 Ci/mmol: NEN) and 10 nmol unlabeled choline had been added to give a final concentration of 10^-6 M. Incubation was carried out for 30 min at 37° C. under a steady flow of 95% O2 /5% CO2. Under these conditions, part of the radioactive choline taken up is converted into radioactive ACh by cholinergic nerve endings, stored in synaptic vesicles, and released upon depolarization by high-K^+ -containing medium [Molenaar et al., 1973a]. For dopamine (DA), serotonin (5-HT), and norepinephrine (NE) release, slices (approximately 100 mg wet weight) were incubated in KR medium containing 0.01 mM nialamide at 37° C. under a steady flow of 95% O2 /5% CO2. The MAO-inhibitor nialamide was added to the medium in order to inhibit metabolism to the monoamines. Incubation was for 30 min in 10 ml of KR medium to which 10 μCi ^3 H-dopamine, ^3 H-norepinephrine, or ^3 H-5-hydroxytryptamine (specific activity 30, 45, and 78 Ci/mmol, respectively: all from NEN) had been added.
Separate experiments were performed for the release of each neurotransmitter. After labeling of the transmitter stores, the slices were washed three times with non-radioactive KR medium and transferred to a superfusion apparatus to measure the drug effects on transmitter release [Schoemaker et al., Psychopharmacology 74, 137 (1981)]. The superfusion apparatus consisted of 10 thermo-jacketed glass columns of 5 mm diameter which were provided with GF/F glass fiber filters to support the brain slices (approximately 10 mg tissue/column). Superfusion was carried out with KR medium at a rate of 0.3 ml/min. For ACh release, 10^-5 M hemicholinium-3 was added to the medium to prevent the uptake of choline formed during superfusion from phospholipids and released ACh, so that it could not be subsequently converted into newly synthesized ACh, which would be released in preference to the pre-formed, labeled ACh. The medium was delivered by a 25-channel peristaltic pump (Ismatec; Brinkman) and maintained at 37° C. by a thermostated stainless-steel heating coil before entering the superfusion column. Each column was provided with a four-way slider valve (Beckman Instruments) which allowed rapid change of low-to-high-K^+ -KR-medium and with two 10-channel, 3-way valves which were used to change form drug-free to drug-containing low- and high-K^+ -KR media.
After 15 min washout of non-specifically bound radioactivity during superfusion, the collection of fractions of 4 min (1.2 ml) each was started. After 3×4 min, the KR medium was changed to a KR medium with 25 mM KCl (ACh, 5-HT release) or 12.5 mM KCl (DA release) (high K^+ -KR medium; S1). Depolarization-induced stimulation of release by high-K^+ -KR medium was then substituted by drug- or vehicle-containing low- and high-K^+ -KR medium and superfusion continued for 3×4 min with low-K^+ -KR medium, for 1×4 min with high-K^+ -KR medium (S2), and for 2×4 min with low-K^+ -KR medium.
Compounds were added to the medium by 100-fold dilution of appropriate stock solutions (in 0.9% NaCl/H2 O) with either low- or high-K^+ -KR medium.
All superfusion fractions were collected in liquid scintillation counting vials.

Row | pIC50 (DuP 996 binding protein) | Structure (SMILES) | ACh Release EC100 (ACh release)
1 | 3.01 | O=C1C(C(O)(c2ccccn2)c2ccccn2)c2ccccc2N1c1ccccc1 (stereo not drawn) [Compound 26, 3[Bis(2-pyridinyl)-(hydroxy)methyl]-1,3-dihydro-1-phenyl-2H-indol-2-one] | 1,000,000 nM
2 | 7.70 | CC(=O)c1ccc2c(c1)C(Cc1ccncc1)(Cc1ccncc1)c1ccccc1-2 [Compound 1, 1-[9,9-Bis(4-pyridinylmethyl)-9H-fluoren-2-yl]-ethanone] | 170 nM
3 | 7.34 | O=C1N2c3ccccc3CCc3cccc(c32)C1(Cc1ccncc1)Cc1ccncc1 [Compound 5, 2,2-Bis(4-pyridinylmethyl)-6,7-dihydro-indole(1,7-AB)(1)-benzapin-1(2H)-one] | 2,500 nM
4 | 7.49 | O=C1c2c(Cl)cccc2C(Cc2ccncc2)(Cc2ccncc2)c2cccc(Cl)c21 [Compound 3, 10,10-Bis-(4-pyridinylmethyl)-1,8-dichloro-9(10H)-anthracenone] | 170 nM
5 | 3.00 | O=C1N(c2ccccc2)c2ccccc2C1(Cc1ccnnc1)Cc1ccnnc1 [Compound 28, 3,3-Bis(4-pyridazinyl-methyl)-1,3-dihydro-1-phenyl-2H-indol-2-one] | 1,000,000 nM
6 | 3.00 | O=C1N(c2ccccc2)c2ccccc2C1(Cc1cnn(Cc2ccccc2)c1)Cc1cnn(Cc2ccccc2)c1 [Compound 27, 3,3-Bis[1-(phenylmethyl)-1H-pyrazol-4-ylmethyl]-1,3 dihydro-1-phenyl-2H-indol-2-one] | 1,300,000 nM
7 | 4.12 | O=C1N(c2ccccc2)c2ccccc2C1(c1cncnc1)c1cncnc1 [Compound 24, 3,3-Bis(5-pyrimidinyl)-1,3-dihydro-1-phenyl-2H-indol-2-one] | 980,000 nM
8 | 5.93 | O=C1N(Cc2ccccc2)c2ccccc2C1(Cc1ccncc1)Cc1ccncc1 [Compound 19, 3,3-Bis(4-pyridinyl-methyl)-1,3-dihydro-1-(phenylmethyl)-2H-indol-2-one] | 4,500 nM
9 | 6.24 | O=C1N(c2ccccc2)c2ccccc2C1(Cc1ccncn1)Cc1ccncn1 [Compound 16, 3,3-Bis(4-pyrimidinylmethyl)-1-phenyl-1H-indol-2(3H)-one] | 3,500 nM
10 | 6.77 | c1cnc2c(c1)C(Cc1ccncc1)(Cc1ccncc1)c1cccnc1-2 [Compound 12, 5,5-Bis(4-pyridinyl-methyl)-5H-cyclopenta(2,1-B:3,4-B')-dipyridine] | 1,400 nM
11 | 6.70 | Cc1ccc2c(c1)N(c1ccccc1)C(=O)C2(Cc1ccncc1)Cc1ccncc1 [Compound 14, 3,3-Bis(4-pyridinylmethyl)-1,3-dihydro-6-methyl-1-phenyl-2H-indol-2-one] | 4,800 nM
12 | 2.96 | c1ccc(CC2(Cc3ccccn3)c3ccccc3-c3ccccc32)nc1 [Compound 29, 2-[9-(2-pyridinylmethyl)-9H-fluoren-9-ylmethyl]-pyridine] | 990,000 nM
13 | 7.29 | c1ccc2c(c1)Sc1ccccc1C2(Cc1ccncc1)Cc1ccncc1 [Compound 6, 4,4'-[9H-Thioxanthen-9,9-diylbis(methylene)]pryidine] | 1,500 nM
14 | 6.17 | O=C1N(c2ccccc2)c2ccccc2C1(Cc1ccncc1)Cc1cn[nH]c1 (stereo not drawn) [Compound 17, 1,3-Dihydro-1-phenyl-3-(1H-pyrazol-4-ylmethyl)-3-(4-pyridinyl-methyl)-2H-indol-2-one] | 3,000 nM
15 | 6.92 | COc1ccc(C(C#N)(Cc2ccncc2)Cc2ccncc2)cc1 [Compound 10, α-(4-Methoxyphenyl)-α-(4-pyridinylmethyl)-4-pyridinepropane nitrile] | 1,600 nM
16 | 3.01 | CN1CCC(CC2(CC3CCN(C)CC3)C(=O)N(c3ccccc3)c3ccccc32)CC1 [Compound 25, 3,3-Bis(1-methyl-4-piperidinylmethyl)-1,3-dihydro-1-phenyl-2H-indol-2-one] | 1,200,000 nM
17 | 5.38 | O=C1N(c2ccccc2)c2ccccc2C1(Cc1cnccn1)Cc1cnccn1 [Compound 20, 3,3-Bis(2-pyrazinylmethyl)-1-phenyl-1H-indol-2(3H)-one] | 11,000 nM
18 | 6.92 | C=C1c2cccc3cccc(c23)C1(Cc1ccncc1)Cc1ccncc1 [Compound 11, 4-[1,2-Dihydro-2-methyl-ene-1-(4-pyridinylmethyl)-1-acenaphthylen-1-yl-methyl]-pyridine] | 3,300 nM
19 | 5.98 | O=C1N(c2ccccc2)c2ccccc2C1(Cc1ccncc1)CC1CCCO1 (stereo not drawn) [Compound 18, 1,3-Dihydro-1-phenyl-3-(4-pyridinylmethyl)-3-(tetrahydro-2-furanyl-methyl)-2H-indol-2-one] | 34,000 nM
20 | 7.21 | c1ccc2c(c1)-c1ccccc1C2(Cc1ccncc1)Cc1ccncc1 [Compound 9, 9,9-Bis(4-pyridinylmethyl)-9H-fluorene] | 340 nM
21 | 7.52 | Nc1ccc2c(c1)C(Cc1ccncc1)(Cc1ccncc1)c1ccccc1-2 [Compound 2, 9,9-Bis-(4-pyridinylmethyl)-9H-fluorene-2-amine] | 140 nM
22 | 6.25 | O=C1N2CCCc3cccc(c32)C1(Cc1ccncc1)Cc1ccncc1 [Compound 15, 1,1-Bis(4-pyridinylmethyl)5,6-dihydro-4H-pyrollo(3,2,1-IJ)quinolin-2(1H)-one] | 14,000 nM
23 | 6.75 | O=C1N(c2ccccc2)c2ccccc2C1(Cc1ccncc1)Cc1ccncn1 (stereo not drawn) [Compound 13, 1,3-Dihydro-1-phenyl-3-(4-pyridinylmethyl)-3(4-pyrimidinylmethyl)-2H-indol-2-one] | 1,500 nM
24 | 2.92 | Cc1nc(CC2(Cc3csc(C)n3)C(=O)N(c3ccccc3)c3ccccc32)cs1 [Compound 30, 3,3-Bis(2-methyl-4-thiazolylmethyl)-1,3-dihydro-1-phenyl-2H-indol-2-one] | 980,000 nM

Reference: patent US5278045A, “Method and compositions to screen compounds for enhancement of the cholinergic, dopaminergic and serotonergic function” (Du Pont Merck Pharmaceutical Company, priority 1990, dated 1994)
